One series concerns the target T1, Aβ 1-42 (Homo sapiens, UniProt P05067).
T1 construct: The reaction solutions contained Aβ 1-42 at concentrations
As to the kind of experiment: Assay 1 Fluorometric H2O2 assay (peroxide). Format: biochemical. The note with it: inhibition of H2O2 generation by Aβ with copper. In short, it runs like this:
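DCF fluorescence (ex 485/em 530 nm) after 60 min at 37 °C in PBS pH 7.4; Aβ 1-42 (50 nM–1 μM) with Cu-Gly (2:1 to Aβ), dopamine 5 μM or ascorbate, deacetylated DCF 100 μM, HRP 0.1 μM, and test compound. H2O2 quantified against H2O2 standards.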

Series [1] is described as follows: Assay 3(d) test compound cytotoxicity (MTS). The class given is cell-based. The following applies: BL6Jx129sv, mouse, primary cortical neuronal cultures, cortical neurons; for viability at 4 days, 1 µM: read-out: Assay 3(d) Cytotoxicity (% viable at 1 uM); for viability at 4 days, 10 µM: read-out: Assay 3(d) Cytotoxicity (% viable at 10 uM). The procedure, abridged:
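E14 mouse (BL6Jx129sv) primary cortical neurons cultured 5 days, then exposed on day 6 to compound prediluted in Neurobasal/B27 without antioxidants, working solutions 2.5, 25, 250 uM, in triplicate for 4 days at 37 °C. Viability by MTS, 2 h at 37 °C, absorbance 560 nm.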

In the next series the test system is Aβ plaques. Kind of series: Assay 14 transgenic mouse brain immunohistochemistry (plaque score). The following applies: APP2576 mice. Format: in vivo. An excerpt: Assay 14. Transgenic Mouse Brain Immunohistochemistry
The APP2576 transgenic mouse (Hsiao et al., 1996) as referred to in Assay 11 is utilized in this assay. The contralateral formalin-fixed mouse brain tissue is coronally cut. Sections (10 μm) are taken from the corresponding sites and treated with 80% formic acid for antigen retrieval. The primary antibody used is monoclonal antibody 1E8, which recognizes epitopes between residues 18 and 22 of Aβ (SmithKline Beecham, UK). Immunoreactivity is developed with secondary antibody linked to horseradish peroxidase (using a 3,39-diaminobenzidinechromagen) (Dako) and alkaline phosphatase (using 5-bromo-4-chloro 3-indoxyl phosphate and nitroblue tetrazolium chloride chromagen) (Dako). Plaque abundance per section is assessed by two operators blinded to treatment according to the following scale:
1=plaques present but very sparse
2=several plaques present
3=numerous plaques visible in restricted areas
4=plaques abundant and not restricted to any particular area.
Intermediate values eg 2.5 are assigned where applicable. Students ‘t’ test is used for comparisons between groups.

T1 sequence (P05067 672-713 limits assumed): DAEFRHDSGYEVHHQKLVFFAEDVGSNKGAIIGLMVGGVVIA

`O=c1c2c(Cl)cc(Cl)c(O)c2ncn1CCN1CCCC1` [Compound 1075] displayed an IC50 on Aβ 1-42 of 730 nM. For the same compound, in series [1], the viability at 4 days, 1 µM turned out to be 99% and the viability at 4 days, 10 µM is 87%. For the same compound, in the series with Aβ plaques, the “Plaques score: average count score per treatment group relative to the vehicle (sham) treated group” value is on record as −22% (plaque).
The compound `O=c1c2c(Cl)cc(Cl)c(O)c2ncn1Cc1ccccn1` [Compound 1077] had an IC50 against Aβ 1-42 of 480 nM. Moreover, in series [1], the viability at 4 days, 1 µM was found to be 101% and the viability at 4 days, 10 µM stood at 86%. For the same compound, the “Plaques score: average count score per treatment group relative to the vehicle (sham) treated group” value in the series with Aβ plaques is recorded as −30% (plaque).
As for `Cc1nc(Cn2cnc3c(O)c(Cl)cc(Cl)c3c2=O)cs1` [Compound 1084], it took 360 nM to reach half-maximal inhibition on Aβ 1-42 (IC50). For the same compound, in series [1], the viability at 4 days, 1 µM came to 100% and the viability at 4 days, 10 µM came out at 93%. For the same compound, the “Plaques score: average count score per treatment group relative to the vehicle (sham) treated group” value with Aβ plaques is −21% (plaque).
On to `Cc1noc(C)c1Cn1cnc2c(O)c(Cl)cc(Cl)c2c1=O` [Compound 1085], for which, at Aβ 1-42, the half-maximal inhibitory concentration (IC50) was determined as 370 nM. In addition, in series [1], the viability at 4 days, 1 µM is 99% and the viability at 4 days, 10 µM stood at 72%.
For the compound `Br.CCCn1cnc2c(O)c(Cl)cc(Cl)c2c1=O` [Compound 1097], half-maximal inhibition at Aβ 1-42 (IC50) required 280 nM. In series [1], the viability at 4 days, 1 µM came out at 99% and the viability at 4 days, 10 µM was 78%. Further, the “Plaques score: average count score per treatment group relative to the vehicle (sham) treated group” value with Aβ plaques is given as −3% (plaque).

A word on the IC50: it is the concentration needed to halve the response being measured. A low value points to greater potency.

The values above are taken from patent US8084459B2, “Substituted quinazolinones for treating neurological conditions” (Prana Biotechnology Ltd, priority 2004, dated 2011).
